Source: PubChem BioAssay AID256 (DTP/NCI, 2004)
“And” between values parts separate entries of the source, which are not always exact repeats. Equal values may be shown once. Inconclusive results and toxic doses are left out. How the source made its calls: active means survival T/C of 150% or more; inactive means T/C below 125% in these data.

System: CD2F1 mice, L1210 leukemia ip, survival T/C
Assay: NCI In Vivo Anticancer Drug Screen. Data for tumor model L1210 Leukemia (intraperitoneal) in CD2F1 (CDF1) mice
Conditions: higher = longer survival
Procedure, shortened: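 Implant tumor; dose compound or vehicle; measure endpoint in both groups; report treated divided by control.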

[1] = endpoint: mean survival time, dose: 100.0 mg/kg/injection, schedule: Q04DX003 (ip), vehicle: saline with Tween-80
[2] = endpoint: mean survival time, dose: 200.0 mg/kg/injection, schedule: Q04DX003 (ip), vehicle: saline with Tween-80
[3] = endpoint: mean survival time, dose: 400.0 mg/kg/injection, schedule: Q04DX003 (ip), vehicle: saline with Tween-80
[4] = endpoint: mean survival time, dose: 50.0 mg/kg/injection, schedule: Q01DX009 (ip), vehicle: saline with Tween-80
[5] = endpoint: mean survival time, dose: 100.0 mg/kg/injection, schedule: Q01DX009 (ip), vehicle: saline with Tween-80
[6] = endpoint: mean survival time, dose: 200.0 mg/kg/injection, schedule: Q01DX009 (ip), vehicle: saline with Tween-80
[7] = endpoint: mean survival time, dose: 100.0 mg/kg/injection, schedule: Q01DX001 (ip), vehicle: saline
[8] = endpoint: mean survival time, dose: 200.0 mg/kg/injection, schedule: Q01DX001 (ip), vehicle: saline
[9] = endpoint: mean survival time, dose: 400.0 mg/kg/injection, schedule: Q01DX001 (ip), vehicle: saline
[10] = endpoint: mean survival time, dose: 400.0 mg/kg/injection, schedule: Q01DX009 (ip), vehicle: saline with Tween-80
[11] = endpoint: mean survival time, dose: 100.0 mg/kg/injection, schedule: Q01DX009 (ip), vehicle: saline
[12] = endpoint: mean survival time, dose: 100.0 mg/kg/injection, schedule: Q04DX003 (ip), vehicle: saline
[13] = endpoint: mean survival time, dose: 200.0 mg/kg/injection, schedule: Q01DX009 (ip), vehicle: saline
[14] = endpoint: mean survival time, dose: 400.0 mg/kg/injection, schedule: Q01DX009 (ip), vehicle: saline
[15] = endpoint: mean survival time, dose: 400.0 mg/kg/injection, schedule: Q04DX003 (ip), vehicle: saline
[16] = endpoint: mean survival time, dose: 200.0 mg/kg/injection, schedule: Q04DX003 (ip), vehicle: saline

Measured: T/C

NC(=O)CC(NC(=O)OCc1ccccc1)C(=O)O (stereo unspecified)
inactive: [1] 95 % of control | [2] 101 % of control | [3] 93 % of control

C=C(C)C1CCC2(C=O)CCC3(C)C(CCC4C5(C)CCC(OC6CCCCO6)C(C)(C)C5CCC43C)C12 (stereo unspecified)
inactive: endpoint: mean survival time, dose: 6.25 mg/kg/injection, schedule: Q04DX002 (ip), vehicle: saline with Tween-80 111 % of control | endpoint: mean survival time, dose: 12.5 mg/kg/injection, schedule: Q04DX002 (ip), vehicle: saline with Tween-80 100 % of control | endpoint: mean survival time, dose: 25.0 mg/kg/injection, schedule: Q04DX002 (ip), vehicle: saline with Tween-80 100 % of control

CC(C(=O)N1c2ccccc2Sc2ccccc21)[N+](C)(C)C (stereo unspecified)
inactive: endpoint: mean survival time, dose: 12.5 mg/kg/injection, schedule: Q04DX003 (ip), vehicle: saline 97 % of control | endpoint: mean survival time, dose: 25.0 mg/kg/injection, schedule: Q04DX003 (ip), vehicle: saline 101 % of control | endpoint: mean survival time, dose: 50.0 mg/kg/injection, schedule: Q04DX003 (ip), vehicle: saline 101 % of control

C=C[Si]1(C)O[Si](C)(C=C)O[Si](C)(C=C)O1 (stereo unspecified)
inactive: [4] 93 % of control | [5] 104 % of control | [6] 93 % of control

COc1cc(C(=O)O)cc(OC)c1OC
inactive: endpoint: mean survival time, dose: 100.0 mg/kg/injection, schedule: Q01DX001 (ip), vehicle: saline with Tween-80 97 % of control | endpoint: mean survival time, dose: 200.0 mg/kg/injection, schedule: Q01DX001 (ip), vehicle: saline with Tween-80 97 % of control | endpoint: mean survival time, dose: 400.0 mg/kg/injection, schedule: Q01DX001 (ip), vehicle: saline with Tween-80 97 % of control

CN=C(NC)c1cccc(NC(=O)/C=C\c2ccc(/C=C/C(=O)Nc3cccc(C(=NC)NC)c3)cc2)c1
inactive: endpoint: median survival time, dose: 1.25 mg/kg/injection, schedule: Q01DX009 (ip), vehicle: saline 101 % of control | endpoint: median survival time, dose: 2.5 mg/kg/injection, schedule: Q01DX009 (ip), vehicle: saline 107 % of control | endpoint: median survival time, dose: 5.0 mg/kg/injection, schedule: Q01DX009 (ip), vehicle: saline 101 % of control

O=c1ccn(C2OC(CO)C(O)C2O)c(=O)[nH]1 (stereo unspecified)
inactive: endpoint: mean survival time, dose: 12.5 mg/kg/injection, schedule: Q01DX005 (ip), vehicle: Klucel (hydroxypropylcellulose) (HPC) 103 % of control | endpoint: mean survival time, dose: 25.0 mg/kg/injection, schedule: Q01DX005 (ip), vehicle: Klucel (hydroxypropylcellulose) (HPC) 101 % of control | endpoint: mean survival time, dose: 50.0 mg/kg/injection, schedule: Q01DX005 (ip), vehicle: Klucel (hydroxypropylcellulose) (HPC) 101 % of control | endpoint: mean survival time, dose: 100.0 mg/kg/injection, schedule: Q01DX005 (ip), vehicle: Klucel (hydroxypropylcellulose) (HPC) 110 % of control | endpoint: mean survival time, dose: 200.0 mg/kg/injection, schedule: Q01DX005 (ip), vehicle: Klucel (hydroxypropylcellulose) (HPC) 105 % of control

S=[As]c1ccccc1 (stereo unspecified)
inactive: [7] 100 % of control | [8] 97 % of control | [9] 107 % of control

CC(=O)OC1CCC2(C)C(=CCC3C2CCC2(C)C(C(C)CCCC(C)(C)O)CCC32)C1 (stereo unspecified)
inactive: [1] 97 % of control | [2] 89 % of control | [3] 94 % of control

CCN(CC)/C(N)=N\c1nc(C)c2cc(Cl)ccc2n1
inactive: [7] 103 % of control

CNC(C1CCCCC1)C(C)OC(=O)c1ccc(N)cc1 (stereo unspecified)
inactive: endpoint: mean survival time, dose: 75.0 mg/kg/injection, schedule: Q01DX001 (ip), vehicle: saline 100 % of control

COc1ccc(CCNC(=O)Cc2ccccc2)cc1OC
inactive: [1] 103 % of control | [2] 94 % of control | [3] 91 % of control

COC1=C(C)C(=O)C2=C(C1=O)C(COC(N)=O)C1(OC)C3C(CN21)N3C(=O)c1ccccc1 (stereo unspecified)
inactive: endpoint: mean survival time, dose: 7.5 mg/kg/injection, schedule: Q01DX001 (ip), vehicle: acetone 106 % of control | endpoint: mean survival time, dose: 10.0 mg/kg/injection, schedule: Q01DX001 (ip), vehicle: acetone 112 % of control | endpoint: mean survival time, dose: 15.0 mg/kg/injection, schedule: Q01DX001 (ip), vehicle: acetone 112 % of control

Nc1nc2c([nH]c(=S)n2C2OC(CO)C(O)C2O)c(=O)[nH]1 (stereo unspecified)
inactive: endpoint: mean survival time, dose: 100.0 mg/kg/injection, schedule: Q04DX002 (ip), vehicle: saline with Tween-80 100 % of control | endpoint: mean survival time, dose: 200.0 mg/kg/injection, schedule: Q04DX002 (ip), vehicle: saline with Tween-80 97 % of control | endpoint: mean survival time, dose: 400.0 mg/kg/injection, schedule: Q04DX002 (ip), vehicle: saline with Tween-80 97 % of control

COC(=O)C1C2OC3C(OC(=O)C31)C2Br (stereo unspecified)
inactive: [5] 91 % of control | [1] 86 % of control | [6] 91 % of control | [2] 94 % of control | [10] 95 % of control | [3] 91 % of control

C1C2CC3CC3CC12 (stereo unspecified)
inactive: [1] 93 % of control

COC(=O)CCC(=O)c1ccc(OC)cc1
inactive: endpoint: mean survival time, dose: 100.0 mg/kg/injection, schedule: Q01DX001 (ip), vehicle: alcohol 92 % of control | endpoint: mean survival time, dose: 200.0 mg/kg/injection, schedule: Q01DX001 (ip), vehicle: alcohol 92 % of control | endpoint: mean survival time, dose: 400.0 mg/kg/injection, schedule: Q01DX001 (ip), vehicle: alcohol 101 % of control

O=C(O)CCC1NCCCO1 (stereo unspecified)
inactive: [11] 101 % of control | [12] 88 % of control | [13] 95 % of control | [14] 95 % of control | [15] 95 % of control

CCOC(=O)[C@]1(Br)CC[C@@]1(Br)C(=O)OCC
inactive: endpoint: mean survival time, dose: 12.5 mg/kg/injection, schedule: Q01DX009 (ip), vehicle: saline with Tween-80 96 % of control | endpoint: mean survival time, dose: 25.0 mg/kg/injection, schedule: Q01DX009 (ip), vehicle: saline with Tween-80 95 % of control and 96 % of control | [4] 92 % of control and 96 % of control | [5] 93 % of control and 101 % of control | [6] 100 % of control and 101 % of control | [10] 98 % of control and 106 % of control

O=C(O)C12CC3CC(CC(C3)C1)C2
inactive: [1] 103 % of control | [2] 105 % of control | [3] 102 % of control

CC1CN(CCC#N)CC(C)O1 (stereo unspecified)
inactive: [11] 105 % of control | [12] 95 % of control | [13] 104 % of control | [16] 104 % of control | [14] 104 % of control | [15] 104 % of control

Cc1cccc(C)c1N=C(NO)c1ccccc1
inactive: [7] 102 % of control | [12] 106 % of control | [8] 100 % of control | [16] 112 % of control | [9] 90 % of control | [15] 100 % of control
